Laboratory results: patent US8541588B2, “Sulfonamide derivatives” (Pfizer Limited, priority 2009, dated 2013)
pIC50: −log10 of the molar value.

target: T1, Nav1.7 (or SCN9A) channel; HEK cells stably transfected with hSCN9A (Homo sapiens, UniProt Q15858); assay: Nav1.7 block, PatchXpress 7000 automated whole-cell voltage clamp, estimated IC50 (EIC50); type: cell-based; conditions: estimated IC50; hSCN9A HEK cells, PatchXpress platform; Examples 815-1040
T1 construct: expressed in transfected cells
T1 sequence (Q15858 whole entry): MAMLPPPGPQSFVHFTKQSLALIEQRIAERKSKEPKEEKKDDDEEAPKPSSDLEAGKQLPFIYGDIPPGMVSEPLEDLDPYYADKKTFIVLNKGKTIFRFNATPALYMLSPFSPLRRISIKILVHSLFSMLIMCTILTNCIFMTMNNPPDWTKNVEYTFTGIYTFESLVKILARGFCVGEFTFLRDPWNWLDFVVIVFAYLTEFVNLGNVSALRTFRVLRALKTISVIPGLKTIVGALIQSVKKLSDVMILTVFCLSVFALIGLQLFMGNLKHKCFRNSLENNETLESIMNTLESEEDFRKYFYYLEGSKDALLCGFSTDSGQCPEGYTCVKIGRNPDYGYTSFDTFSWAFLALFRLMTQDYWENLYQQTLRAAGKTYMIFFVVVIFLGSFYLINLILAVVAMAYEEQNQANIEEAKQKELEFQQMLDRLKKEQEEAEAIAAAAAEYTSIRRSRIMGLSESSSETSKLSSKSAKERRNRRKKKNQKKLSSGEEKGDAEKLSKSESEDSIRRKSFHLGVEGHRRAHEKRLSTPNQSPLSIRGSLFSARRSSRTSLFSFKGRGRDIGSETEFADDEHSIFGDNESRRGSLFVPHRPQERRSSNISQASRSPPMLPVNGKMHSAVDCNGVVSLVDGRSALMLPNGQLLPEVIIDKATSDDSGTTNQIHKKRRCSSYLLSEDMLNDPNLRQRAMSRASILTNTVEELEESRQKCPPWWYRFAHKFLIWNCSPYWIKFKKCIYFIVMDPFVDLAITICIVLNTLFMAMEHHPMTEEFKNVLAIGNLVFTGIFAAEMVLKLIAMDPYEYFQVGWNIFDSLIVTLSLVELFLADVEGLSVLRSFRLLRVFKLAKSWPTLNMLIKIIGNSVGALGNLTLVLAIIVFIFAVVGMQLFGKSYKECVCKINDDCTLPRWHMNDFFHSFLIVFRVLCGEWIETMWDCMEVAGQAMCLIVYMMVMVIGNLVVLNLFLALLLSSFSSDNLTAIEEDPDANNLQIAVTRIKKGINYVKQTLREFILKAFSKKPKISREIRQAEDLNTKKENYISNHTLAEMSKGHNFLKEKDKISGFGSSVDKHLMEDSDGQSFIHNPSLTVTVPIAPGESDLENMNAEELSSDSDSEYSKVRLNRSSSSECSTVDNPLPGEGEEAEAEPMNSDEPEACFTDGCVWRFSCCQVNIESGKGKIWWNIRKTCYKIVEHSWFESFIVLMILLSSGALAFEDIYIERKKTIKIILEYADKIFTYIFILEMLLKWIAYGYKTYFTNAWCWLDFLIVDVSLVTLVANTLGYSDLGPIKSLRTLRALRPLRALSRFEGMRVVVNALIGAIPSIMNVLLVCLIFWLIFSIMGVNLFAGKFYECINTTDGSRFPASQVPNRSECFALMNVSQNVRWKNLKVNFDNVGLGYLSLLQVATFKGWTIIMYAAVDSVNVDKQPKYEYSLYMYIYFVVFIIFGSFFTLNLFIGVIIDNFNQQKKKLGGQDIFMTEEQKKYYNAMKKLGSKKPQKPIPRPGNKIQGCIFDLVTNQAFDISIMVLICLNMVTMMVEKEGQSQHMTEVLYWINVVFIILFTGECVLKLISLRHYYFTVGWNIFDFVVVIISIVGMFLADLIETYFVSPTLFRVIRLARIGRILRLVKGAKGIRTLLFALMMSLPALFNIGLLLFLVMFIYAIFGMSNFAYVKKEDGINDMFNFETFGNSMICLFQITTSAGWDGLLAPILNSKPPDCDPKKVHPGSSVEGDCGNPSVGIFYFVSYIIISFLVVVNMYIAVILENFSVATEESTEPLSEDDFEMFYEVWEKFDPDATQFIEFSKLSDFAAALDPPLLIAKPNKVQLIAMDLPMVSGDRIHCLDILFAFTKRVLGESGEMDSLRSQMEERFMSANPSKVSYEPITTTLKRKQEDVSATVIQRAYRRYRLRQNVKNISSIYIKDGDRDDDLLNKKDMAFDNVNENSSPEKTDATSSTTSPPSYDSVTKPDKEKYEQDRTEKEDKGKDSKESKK

pIC50	IC50 [nM]	Compound
6.64	–	O=S(=O)(Nc1ccc(F)cn1)c1cc(F)c(Oc2ccc(Cl)cc2-c2ccnnc2)cc1F [Example 846, 4-(4-chloro-2-pyridazin-4-ylphenoxy)-2,5-difluoro-N-(5-fluoropyridin-2-yl)benzenesulfonamide]
6.89	–	O=S(=O)(Nc1ccncn1)c1ccc(Oc2ccc(Cl)cc2-c2ccnnc2)c(Cl)c1 [Example 847, 3-chloro-4-(4-chloro-2-pyridazin-4-ylphenoxy)-N-pyrimidin-4-ylbenzenesulfonamide]
8.29	–	CCN1CC(n2nccc2-c2cc(F)ccc2Oc2cc(F)c(S(=O)(=O)Nc3ncns3)cc2Cl)C1 [Example 848, 5-chloro-4-{2-[1-(1-ethylazetidin-3-yl)-1H-pyrazol-5-yl]-4-fluorophenoxy}-2-fluoro-N-1,2,4-thiadiazol-5-ylbenzenesulfonamide]
6.92	–	Nc1nccc(-c2cc(Cl)ccc2Oc2cc(F)c(S(=O)(=O)Nc3ncns3)cc2F)n1 [Example 849, 4-[2-(2-aminopyrimidin-4-yl)-4-chlorophenoxy]-2,5-difluoro-N-1,2,4-thiadiazol-5-ylbenzenesulfonamide]
8.49	–	N#Cc1ccc(Oc2cc(F)c(S(=O)(=O)Nc3ncns3)cc2Cl)c(-c2cn[nH]c2)c1 [Example 850, 5-chloro-4-[4-cyano-2-(1H-pyrazol-4-yl)phenoxy]-2-fluoro-N-1,2,4-thiadiazol-5-ylbenzenesulfonamide]
8.80	–	N#Cc1cc(S(=O)(=O)Nc2ncns2)ccc1Oc1ccc(Cl)cc1-c1cccc(CN2CCC2)c1 [Example 852, 4-{[3′-(azetidin-1-ylmethyl)-5-chlorobiphenyl-2-yl]oxy}-3-cyano-N-1,2,4-thiadiazol-5-ylbenzenesulfonamide]
6.13	–	N#Cc1ccc(-c2cc(Cl)ccc2Oc2ccc(S(=O)(=O)Nc3ncns3)cc2C#N)nc1 [Example 853, 4-[4-chloro-2-(5-cyanopyridin-2-yl)phenoxy]-3-cyano-N-1,2,4-thiadiazol-5-ylbenzenesulfonamide]
8.19	–	N#Cc1cc(S(=O)(=O)Nc2ncns2)ccc1Oc1ccc(Cl)cc1-c1cccc(C(=O)N2CCC2)c1 [Example 854, 4-{[3′-(azetidin-1-ylcarbonyl)-5-chlorobiphenyl-2-yl]oxy}-3-cyano-N-1,2,4-thiadiazol-5-ylbenzenesulfonamide]
8.38	–	O=C(c1cccc(-c2cc(Cl)ccc2Oc2cc(F)c(S(=O)(=O)Nc3ncns3)cc2F)c1)N1CCC1 [Example 855, 4-{[3′-(azetidin-1-ylcarbonyl)-5-chlorobiphenyl-2-yl]oxy}-2,5-difluoro-N-1,2,4-thiadiazol-5-ylbenzenesulfonamide]
7.66	–	O=C(c1cccc(-c2cc(Cl)ccc2Oc2cc(F)c(S(=O)(=O)Nc3cscn3)cc2Cl)c1)N1CCC1 [Example 856, 4-{[3′-(azetidin-1-ylcarbonyl)-5-chlorobiphenyl-2-yl]oxy}-5-chloro-2-fluoro-N-1,3-thiazol-4-ylbenzenesulfonamide]
7.85	–	O=C(c1cccc(-c2cc(Cl)ccc2Oc2cc(F)c(S(=O)(=O)Nc3nncs3)cc2Cl)c1)N1CCC1 [Example 857, 4-{[3′-(azetidin-1-ylcarbonyl)-5-chlorobiphenyl-2-yl]oxy}-5-chloro-2-fluoro-N-1,3,4-thiadiazol-2-ylbenzenesulfonamide]
7.77	–	O=C(c1cccc(-c2cc(Cl)ccc2Oc2ccc(S(=O)(=O)Nc3ccncn3)cc2Cl)c1)N1CCC1 [Example 858, 4-{[3′-(azetidin-1-ylcarbonyl)-5-chlorobiphenyl-2-yl]oxy}-3-chloro-N-pyrimidin-4-ylbenzenesulfonamide]
8.36	–	O=C(c1cccc(-c2cc(Cl)ccc2Oc2cc(F)c(S(=O)(=O)Nc3ncns3)cc2Cl)n1)N1CCC1 [Example 859, 4-{2-[6-(azetidin-1-ylcarbonyl)pyridin-2-yl]-4-chlorophenoxy}-5-chloro-2-fluoro-N-1,2,4-thiadiazol-5-ylbenzenesulfonamide]
6.77	–	CN(C)c1n[nH]cc1-c1cc(Cl)ccc1Oc1cc(F)c(S(=O)(=O)Nc2cscn2)cc1Cl [Example 860, 5-chloro-4-{4-chloro-2-[3-(dimethylamino)-1H-pyrazol-4-yl]phenoxy}-2-fluoro-N-1,3-thiazol-4-ylbenzenesulfonamide]
7.85	–	CC(C)N1CC(n2nccc2-c2cc(Cl)ccc2Oc2ccc(S(=O)(=O)Nc3cscn3)cc2C#N)C1 [Example 861, 4-{4-chloro-2-[1-(1-isopropylazetidin-3-yl)-1H-pyrazol-5-yl]phenoxy}-3-cyano-N-1,3-thiazol-4-ylbenzenesulfonamide]
6.62	–	Cn1nccc1-c1cc(Cl)ccc1Oc1ccc(S(=O)(=O)Nc2cccnn2)cc1Cl [Example 862, 3-chloro-4-[4-chloro-2-(1-methyl-1H-pyrazol-5-yl)phenoxy]-N-pyridazin-3-ylbenzenesulfonamide]
8.51	–	Cc1[nH]ncc1-c1cc(Cl)c(F)cc1Oc1ccc(S(=O)(=O)Nc2ncns2)cc1C#N [Example 863, 4-[4-chloro-5-fluoro-2-(5-methyl-1H-pyrazol-4-yl)phenoxy]-3-cyano-N-1,2,4-thiadiazol-5-ylbenzenesulfonamide]

pIC50	IC50 [nM]	Compound
8.36	–	N#Cc1cc(S(=O)(=O)Nc2ncns2)ccc1Oc1ccc(Cl)cc1-c1cccc(C(=O)NC2CC2)c1 [Example 864, 5′-chloro-2′-{2-cyano-4-[(1,2,4-thiadiazol-5-ylamino)sulfonyl]phenoxy}-N-cyclopropylbiphenyl-3-carboxamide]
8.36	–	Cc1[nH]ncc1-c1cc(Cl)ccc1Oc1ccc(S(=O)(=O)Nc2ncns2)cc1C#N [Example 865, 4-[4-chloro-2-(5-methyl-1H-pyrazol-4-yl)phenoxy]-3-cyano-N-1,2,4-thiadiazol-5-ylbenzenesulfonamide]
7.85	–	O=S1(=O)CCC(n2nccc2-c2cc(Cl)ccc2Oc2cc(F)c(S(=O)(=O)Nc3ncns3)cc2F)C1 (stereo not shown) [Example 866, 4-{4-chloro-2-[1-(1,1-dioxidotetrahydro-3-thienyl)-1H-pyrazol-5-yl]phenoxy}-2,5-difluoro-N-1,2,4-thiadiazol-5-ylbenzenesulfonamide]
8.85	–	N#Cc1cc(S(=O)(=O)Nc2ncns2)ccc1Oc1ccc(Cl)cc1-c1cccc(CN2CC(CO)(CO)C2)c1 [Example 867, 4-[(3′-{[3,3-bis(hydroxymethyl)azetidin-1-yl]methyl}-5-chlorobiphenyl-2-yl)oxy]-3-cyano-N-1,2,4-thiadiazol-5-ylbenzenesulfonamide]
7.82	–	N#Cc1cc(S(=O)(=O)Nc2ncns2)ccc1Oc1ccc(Cl)cc1-c1ccnnc1 [Example 868, 4-(4-chloro-2-pyridazin-4-ylphenoxy)-3-cyano-N-1,2,4-thiadiazol-5-ylbenzenesulfonamide]
6.27	–	O=S(=O)(Nc1cccnn1)c1ccc(Oc2ccc(Cl)cc2-c2ccnnc2)c(Cl)c1 [Example 869, 3-chloro-4-(4-chloro-2-pyridazin-4-ylphenoxy)-N-pyridazin-3-ylbenzenesulfonamide]
6.85	–	CN(C)c1n[nH]cc1-c1cc(Cl)ccc1Oc1cc(F)c(S(=O)(=O)Nc2nncs2)cc1Cl [Example 870, 5-chloro-4-{4-chloro-2-[3-(dimethylamino)-1H-pyrazol-4-yl]phenoxy}-2-fluoro-N-1,3,4-thiadiazol-2-ylbenzenesulfonamide]
7.60	–	Cc1nsc(NS(=O)(=O)c2cc(Cl)c(Oc3ccc(C(F)(F)F)cc3-c3ccnnc3)cc2F)n1 [Example 871, 5-chloro-2-fluoro-N-(3-methyl-1,2,4-thiadiazol-5-yl)-4-[2-pyridazin-4-yl-4-(trifluoromethyl)phenoxy]benzenesulfonamide]
7.92	–	Cc1nsc(NS(=O)(=O)c2cc(Cl)c(Oc3ccc(Cl)cc3-c3c[nH]nc3N)cc2F)n1 [Example 872, 4-[2-(3-amino-1H-pyrazol-4-yl)-4-chlorophenoxy]-5-chloro-2-fluoro-N-(3-methyl-1,2,4-thiadiazol-5-yl)benzenesulfonamide]
5.41	–	O=S(=O)(Nc1nncs1)c1cc(F)c(Oc2ccc(Cl)cc2-c2cc(N3CCOCC3)ncn2)cc1F [Example 873, 4-[4-chloro-2-(6-morpholin-4-ylpyrimidin-4-yl)phenoxy]-2,5-difluoro-N-1,3,4-thiadiazol-2-ylbenzenesulfonamide]
6.46	–	N#Cc1cc(S(=O)(=O)Nc2ncns2)ccc1Oc1ccc(Cl)cc1-c1cccc(CN2CC(F)(F)C2)n1 [Example 874, 4-(4-chloro-2-{6-[(3,3-difluoroazetidin-1-yl)methyl]pyridin-2-yl}phenoxy)-3-cyano-N-1,2,4-thiadiazol-5-ylbenzenesulfonamide]
7.30	–	N#Cc1cc(S(=O)(=O)Nc2ncns2)ccc1Oc1ccc(Cl)cc1-c1cc(N2CCNCC2)ncn1 [Example 875, 4-[4-chloro-2-(6-piperazin-1-ylpyrimidin-4-yl)phenoxy]-3-cyano-N-1,2,4-thiadiazol-5-ylbenzenesulfonamide]
–	>1000	N#Cc1cc(S(=O)(=O)Nc2nncs2)ccc1Oc1ccc(Cl)cc1-c1cc(N2CCOCC2)ncn1 [Example 876, 4-[4-chloro-2-(6-morpholin-4-ylpyrimidin-4-yl)phenoxy]-3-cyano-N-1,3,4-thiadiazol-2-ylbenzenesulfonamide]
6.33	–	N#Cc1cc(S(=O)(=O)Nc2ncns2)ccc1Oc1ccc(Cl)cc1-c1cc(N2CCC2)ncn1 [Example 877, 4-[2-(6-azetidin-1-ylpyrimidin-4-yl)-4-chlorophenoxy]-3-cyano-N-1,2,4-thiadiazol-5-ylbenzenesulfonamide]
8.24	–	N#Cc1cc(S(=O)(=O)Nc2ncns2)ccc1Oc1ccc(OC(F)(F)F)cc1-c1ccnnc1 [Example 878, 3-cyano-4-[2-pyridazin-4-yl-4-(trifluoromethoxy)phenoxy]-N-1,2,4-thiadiazol-5-ylbenzenesulfonamide]
8.15	–	O=S(=O)(Nc1ncns1)c1cc(F)c(Oc2ccc(Cl)cc2-c2ccnnc2)cc1F [Example 879, 4-(4-chloro-2-pyridazin-4-ylphenoxy)-2,5-difluoro-N-1,2,4-thiadiazol-5-ylbenzenesulfonamide]
6.96	–	N#Cc1cc(S(=O)(=O)Nc2ncns2)ccc1Oc1ccc(Cl)cc1-c1ccon1 [Example 880, 4-(4-chloro-2-isoxazol-3-ylphenoxy)-3-cyano-N-1,2,4-thiadiazol-5-ylbenzenesulfonamide]
